These results are taken from US6894021B2, “Method for identifying and using A2B adenosine receptor antagonists to mediate mammalian cell proliferation” (CV Therapeutics, Inc., priority 2000, dated 2005).

Holding throughout (type): cell-based
The test system of experiment [1] is human retinal endothelial cells (HREC). Put plainly: Matrigel assay of endothelial tube formation. The conditions noted are these: 48 h; for Effect on NECA-induced tube formation on Matrigel (photomicrographs): antagonist 10 μmol/L with NECA 10 μmol/L, FIG. 2C, 2D; for Total tube length in the presence of NECA: antagonist added to NECA, NECA alone 74.2±2.4. As to the method:
(§1) Primary cultures of HREC were prepared and maintained as previously described and cells in passage 3-6 were used for these studies. […] To maintain purity of HREC, several precautionary steps were taken. […] In addition, cultures of HREC were exposed to trypsin for only 45 sec prior to passage. Endothelial cells float off during this short trypsin treatment while pericytes remain attached to the substrate.
Endothelial tube formation was assessed on Matrigel. Briefly, Matrigel was thawed and kept at 4° C. Multi-well plates and pipette tips were chilled to −20° C. and Matrigel (125 μL) was added to each well of a 48-well plate and allowed to harden for a minimum of 1 h at 37° C. HREC were dissociated enzymatically (2 min at 37° C. in 0.25% Trypsin-EDTA), centrifuged (300×g, 5 min) and re-suspended in serum-free media. Test agents (100 μL) were prepared at 2× final concentration and 100 μL were added to wells. HREC (3×10 in 100 μL per well) were then added and plates were incubated at 37° C. Wells were photographed 48 h after plating. Identical fields in each well were photographed to minimize the possible variation due to variable cell density caused by the settling of cells. […] All conditions were tested in duplicate wells in three separate experiments using cells from different donors.

Experiment [2] shares this test system. Put plainly: Endothelial cell chemotaxis / chemokinesis in blind-well (Boyden) chambers. The settings on record: for Effect on NECA-stimulated HREC migration (chemotaxis): antagonist 10 μmol/L co-added with NECA 10 μmol/L. On the procedure: as §1
Endothelial cell chemotaxis was measured in blind-well chemotaxis chambers (Neuroprobe, Inc, Bethesda, Md.) as previously described. Briefly a single cell suspension of endothelial cells ([…] cells/well) was prepared and treated with ADA (1 U/mL). Thirty microliters of this suspension was placed in each of 48 lower wells of the blind-well apparatus. The wells were overlaid with a porous (5 μm diameter pore) polyvinyl—and pyrrolidone-free polycarbonate membrane (Nucleopore, Pleasanton, Calif.), coated with 0.1% dermal collagen. The cells were allowed to attach to the membrane by inverting the chamber of 2 h. The chambers were then placed upright and exposed to NECA alone (10 μmol/L), NECA combined with 3-N-propylxanthine (10 μmol/L), JW-V1-08 (10 μmol/L) or the non-selective AdoR antagonist xanthine amine congener (XAC, 10 μmol/L) in a 50 μL volume. After incubation for 12 h, the membrane was recovered and scraped free of cells on the attachment side. The remaining cells, those that had migrated through the pores, were fixed in methanol, is stained with modified Wright's stain and then counter-stained with haematoxylin and eosin. The positive control was 10% fetal bovine serum and the negative control was 1% ablumin. Chemokinesis, the non-oriented increase in cell migration in response to a stimulus, was measured by adding equal concentration of NECA or NECA plus one of the antagonists to both lower and upper chambers. Treatment conditions were examined in triplicate in three separate experiments.

The test system is the same in experiment [3]. Description: HREC proliferation assay (cell counting, Coulter Counter). The conditions noted are these: for Effect on NECA-induced HREC proliferation: antagonist 10 μmol/L with NECA 10 μmol/L, FIG. 1A. As to the method:
as §1
HREC were seeded at 10 cells/cm in 24 well plates and allowed to adhere overnight. Cells were washed in Hank's balanced salt solution and the medium was replaced with serum—and growth supplement-free medium (SFM) for 24 hr to induce cell-cycle arrest. Cells were washed again and pre-treated with 1 U/mL adenosine deaminase (ADA) for 30 min. […] Controls were HREC exposed to SFM or normal growth medium. For the next three days at 24-hour intervals replicate wells were treated with trypsin and the cells were collected and counted using a Coulter Counter. Each condition was examined in triplicate in three separate experiments using cells from different donors for each experiment.

Entries after “also recorded” stand apart in the source; their conditions may differ.

With `CCCn1c(=O)[nH]c(=O)c2[nH]cnc21` [3-N-propylxanthine], the “Effect on NECA-induced tube formation on Matrigel (photomicrographs)” value in experiment [1] is “diminished NECA-induced tube formation; also recorded: inhibited tube formation, resulting in fewer tubes of shorter length”. Further, the “Total tube length in the presence of NECA” value in experiment [1] (p<0.01) stood at 53.7±0.9 pixel. In addition, in experiment [2] (12 h, FIG. 1B), the “Effect on NECA-stimulated HREC migration (chemotaxis)” value (shortened to “Effect … (chemotaxis)”) was “antagonized the stimulatory effect of NECA on chemotaxis”. Besides, in experiment [3], the “Effect on NECA-induced HREC proliferation” value is recorded as “completely blocked; also recorded: completely block the proliferative effect of NECA”.
For the compound `CCNC(=O)[C@H]1O[C@@H](n2cnc3c(N)ncnc32)[C@H](O)[C@@H]1O` [NECA, 5′-N-ethylcarboxamido-adenosine], the “Endothelial cell tube formation on Matrigel (photomicrographs)” value in experiment [1] (NECA 10 μmol/L alone, FIG. 2B) was “supported extensive tube formation”. Moreover, in experiment [1] (NECA alone), the “Increase of tube length over untreated cells” value was “more than 2 fold”. This compound showed a Total tube length in experiment [1] (NECA alone, untreated cells 35.7±1.6, p<0.01) of 74.2±2.4 pixel. Besides, the “HREC chemotaxis / migration” value in experiment [2] (NECA alone versus unstimulated cells, 12 h, FIG. 1B) is “concentration-dependent increase in HREC migration; also recorded: increased migration in a concentration-dependent manner”. The “Chemokinesis (non-oriented increase in cell migration)” value in experiment [2] (equal concentration in lower and upper chambers) is “Neither NECA alone nor NECA in combination with the AdoR antagonists induced chemokinesis”. In experiment [3] (NECA 10 μmol/L, 3 days, ADA-pretreated serum-starved HREC), the “HREC proliferation by cell counts, as density relative to cells exposed to normal growth medium” value is reported as “about 80%”.
With `CCCn1c(=O)c2[nH]c(-c3ccc(OCC(=O)NCCN)cc3)nc2n(CCC)c1=O` [XAC, xanthine amine congener], the “Effect … (chemotaxis)” value in experiment [2] (12 h, FIG. 1B) is given as “abolished NECA-stimulated migration of HREC”.
`CC(C)Cn1c(=O)[nH]c(=O)c2[nH]c(N3CCCC3)nc21` [JW-V1-08, 3-isobutyl-8-pyrrolidinoxanthine]: in experiment [1], the “Effect on NECA-induced tube formation on Matrigel (photomicrographs)” value is given as “diminished NECA-induced tube formation; also recorded: inhibited”. Also, the “Total tube length in the presence of NECA” value in experiment [1] (p<0.01) is given as 66±1.2 pixel. The “Effect … (chemotaxis)” value in experiment [2] (12 h, FIG. 1B) is reported as “antagonized the stimulatory effect of NECA on chemotaxis”. Besides, the “Effect on NECA-induced HREC proliferation” value in experiment [3] is on record as “completely blocked; also recorded: completely block the proliferative effect of NECA”.
